Data on 41 molecules can be found in US11414416B1, “Compounds and uses thereof” (Foghorn Therapeutics Inc., priority 2019, dated 2022).

Like-named read-outs stand apart in the source and are kept apart here.

The IC50 is the concentration at which inhibition is half-maximal.

For this experiment, the target named is Nanoluciferase-BRD9 fusion protein (Homo sapiens (Human), UniProt Q9H8M2). Briefly: SYO1 BRD9 NanoLuc degradation assay. Type of experiment: cell-based. To be noted: SYO-1 cells expressing 3×FLAG-NLuc-BRD9, 6 hours; for DC50: read-out: SYO1 BRD9-NanoLuc degradation IC50. In short, it runs like this: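 Degradation was read as loss of nanoluciferase signal (Nano-Glo) after 6 h compound exposure in a stable SYO-1 line carrying 3×FLAG-NLuc-BRD9 (8000 cells/well). Normalised between DMSO (high) and a 1 μM known BRD9 degrader (low).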
Chain of Nanoluciferase-BRD9 fusion protein (Q9H8M2 whole entry, the tested form may be a part): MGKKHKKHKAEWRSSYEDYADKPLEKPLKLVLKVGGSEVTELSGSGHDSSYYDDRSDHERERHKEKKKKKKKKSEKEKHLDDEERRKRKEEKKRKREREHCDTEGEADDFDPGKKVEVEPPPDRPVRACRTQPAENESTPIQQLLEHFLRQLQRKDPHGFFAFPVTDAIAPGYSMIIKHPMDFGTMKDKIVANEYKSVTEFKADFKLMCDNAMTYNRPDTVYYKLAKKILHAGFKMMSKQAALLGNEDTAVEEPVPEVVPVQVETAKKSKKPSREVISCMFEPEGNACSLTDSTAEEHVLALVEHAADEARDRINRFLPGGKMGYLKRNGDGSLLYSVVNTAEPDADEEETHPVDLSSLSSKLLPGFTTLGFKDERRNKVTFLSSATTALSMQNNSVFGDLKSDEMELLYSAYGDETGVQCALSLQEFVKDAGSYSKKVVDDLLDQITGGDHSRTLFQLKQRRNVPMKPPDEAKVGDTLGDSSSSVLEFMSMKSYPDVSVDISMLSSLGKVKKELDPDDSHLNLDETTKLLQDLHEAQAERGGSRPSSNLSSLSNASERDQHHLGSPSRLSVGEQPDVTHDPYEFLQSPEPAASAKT

For the molecule `COc1cc(-c2cn(C)c(=O)c3cn(C)nc23)cc(OC)c1CN1CCC2(CC1)CN(c1ccc3c(c1)CN(C1CCC(=O)NC1=O)C3=O)C2` (centres unmarked) [Compound D412], where the note is “Table 5C”, the DC50 is under 10 nM.

In the case of `COc1cc(-c2cc(C)c(=O)n(C)n2)cc(OC)c1CN1CCC2(CC1)CN(c1ccc3c(c1)C(=O)N(C1CCC(=O)NC1=O)C3)C2` (centres unmarked) [Compound D358], where the note is “Table 5B”, the DC50 is under 10 nM. Turning to `COc1cc(-c2cn(C)c(=O)c3cn(OC)nc23)cc(OC)c1CN1CCC2(CC1)CN(c1ccc3c(c1)C(=O)N(C1CCC(=O)NC1=O)C3)C2` (centres unmarked) [Compound D462], the DC50 (Table 5C) is under 10 nM.

With `COc1cc(-c2cn(C)c(=O)c3cnccc23)cc(OC)c1CN1CCC2(CC1)CN(c1ccc3c(c1)C(=O)N(C1CCC(=O)NC1)C3)C2` (centres unmarked) [Compound D390], the DC50 (Table 5C) was over 1000 nM. Regarding `COc1cc(-c2cn(C)c(=O)c3cnccc23)cc(OC)c1CN1CCN(C(=O)C#Cc2ccc3c(c2)C(=O)N(C2CCC(=O)NC2=O)C3=O)CC1` (centres unmarked) [Compound D216], the DC50 (Table 5B) was under 10 nM.

As for `COc1cc(-c2cn(C)c(=O)c3cnccc23)cc(OC)c1CN1CCC2(CC1)CN(c1ccc3c(c1)C(=O)N(C1CCC(=O)NC1=O)C3)C2` (centres unmarked) [Compound D377], the DC50 (Table 5C) is under 10 nM. In the case of `COc1cc(-c2cn(C)c(=O)c3cnccc23)cc(OC)c1CN1CC2(CCN(CCCC#Cc3ccc4c(c3)C(=O)N(C3CCC(=O)NC3=O)C4=O)CC2)C1` (centres unmarked) [Compound D212], the DC50 (Table 5B) is 10 to 100 nM. For the molecule `COc1cc(-c2cn(C)c(=O)c3cnccc23)cc(OC)c1CN(C)C(=O)CCCCN1CCC2(C1)CN(c1ccc3c(c1)C(=O)N(C1CCC(=O)NC1=O)C3=O)C2` (centres unmarked) [Compound D203], the DC50 (Table 5B) is under 10 nM. `COc1cc(-c2cc(C)c(=O)n(C)c2)cc(OC)c1CN1CC(C)(C#Cc2ccc3c(c2)C(=O)N(C2CCC(=O)NC2=O)C3)C1` (centres unmarked) [Compound D450] came in with an IC50 (Table 5C) of under 10 nM.

Turning to `COc1cc(-c2cn(C)c(=O)c3cnccc23)cc(OC)c1CN1CC(N)(C(=O)NCCCCCCCCNc2cccc3c2C(=O)N(C2CCC(=O)NC2=O)C3=O)C1` (centres unmarked) [Compound D17, 3-amino-1-[[2,6-dimethoxy-4-(2-methyl-1-oxo-1,2-dihydro-2,7-naphthyridin-4-yl)phenyl]methyl]-N-(8-[[2-(2,6-dioxopiperidin-3-yl)-1,3-dioxo-2,3-dihydro-1H-isoindol-4-yl]amino]octyl)azetidine-3-carboxamide], the DC50 (Table 5A) is under 10 nM. Still for that read-out and setting: the same measure for `COc1cc(-c2cn(C)c(=O)c3cnccc23)cc(OC)c1CN1CC(S(=O)(=O)NCCN2CCN(c3ccc4c(c3)C(=O)N(C3CCC(=O)NC3=O)C4=O)CC2)C1` (centres unmarked) [Compound D24, 1-[[2,6-dimethoxy-4-(2-methyl-1-oxo-2,7-naphthyridin-4-yl)phenyl]methyl]-N-(2-[4-[2-(2,6-dioxopiperidin-3-yl)-1,3-dioxoisoindol-5-yl]piperazin-1-yl]ethyl)azetidine-3-sulfonamide formic acid]: 10 to 100 nM.

For the molecule `COc1cc(-c2cn(C)c(=O)c3cnccc23)cc(OC)c1CN(C)CCOCCOCCOCC(=O)N[C@@H](C(=O)N1C[C@@H](O)C[C@@H]1C(=O)NCc1ccc(-c2scnc2C)cc1)C(C)(C)C` [DD1], for the setting “Table 5B”, the DC50 was over 1000 nM. On to `COc1cc(-c2cn(C)c(=O)c3cnccc23)cc(OC)c1CN(C)C(=O)CCCCN1CCCC2(CC(Oc3ccc4c(c3)C(=O)N([C@@H]3CCC(=O)NC3=O)C4=O)C2)C1` (some centres unmarked) [Compound D261], for which the DC50 (Table 5B) is under 10 nM.

For `COc1cc(-c2cc(C)c(=O)n(C)c2)cc(OC)c1CN1CCN(c2ccc3c(c2)C(=O)N(C2CCC(=O)NC2=O)C3)CC1` (centres unmarked) [Compound D452], the DC50 (Table 5C) was under 10 nM. Turning to `COc1cc(-c2cn(C)c(=O)c3nc(O)ccc23)cc(OC)c1CN1CCC(CN2CCC3(CC2)CC(Oc2ccc4c(c2)CN(C2CCC(=O)NC2=O)C4=O)C3)CC1` (centres unmarked) [Compound D371], the DC50 (Table 5B) is under 10 nM.

Regarding `COc1cc(-c2cn(C)c(=O)c3cnccc23)cc(OC)c1CN1CC2(C1)CN(C(=O)C#Cc1ccc3c(c1)C(=O)N(C1CCC(=O)NC1=O)C3=O)C2` (centres unmarked) [Compound D185], the DC50 (Table 5B) was under 10 nM. On the same count and under the same terms, the same measure for `COc1cc(-c2cn(C)c(=O)c3cnccc23)cc(OC)c1CN1CCN(C(=O)CCC#Cc2ccc3c(c2)C(=O)N(C2CCC(=O)NC2=O)C3=O)CC1` (centres unmarked) [Compound D199]: under 10 nM. In the case of `COc1cc(-c2cn(C)c(=O)c3cnccc23)cc(OC)c1CN1CC(CC(=O)N2CCC3(CC2)CC(Oc2ccc4c(c2)C(=O)N(C2CCC(=O)NC2=O)C4=O)C3)C1` (centres unmarked) [Compound D80], the DC50 (Table 5A) is under 10 nM. Consider `COc1cc(-c2cc(C)c(=O)n(C)c2C)cc(OC)c1CN1CCC(CN2CCC3(CC2)CN(c2ccc4c(c2)C(=O)N(C2CCC(=O)NC2=O)C4)C3)CC1` (centres unmarked) [Compound D397], for which, under “Table 5C”, the DC50 is under 10 nM. Take `COc1cc(-c2cn(C)c(=O)c3[nH]ccc23)cc(OC)c1CN1CCC2(CC1)CN(c1ccc3c(c1)C(=O)N(C1CCC(=O)NC1=O)C3=O)C2` (centres unmarked) [Compound D340]: for the setting “Table 5B”, the DC50 was under 10 nM. Same read-out and setting: the same measure for `COc1cc(-c2cn(C)c(=O)c3cnccc23)cc(OC)c1CN1CC(CC(=O)N2CCC3(CC2)CN(c2ccc4c(c2)C(=O)N(C2CCC(=O)NC2=O)C4=O)C3)C1` (centres unmarked) [Compound D180]: under 10 nM. With `COc1cc(-c2cn(C)c(=O)c3cnccc23)cc(OC)c1CN1CC(n2cc(CCOc3ccc4c(c3)C(=O)N(C3CCC(=O)NC3=O)C4=O)nn2)C1` (centres unmarked) [Compound D298], the DC50 (Table 5B) was under 10 nM. Still for that read-out and setting: under `COc1cc(-c2cn(C)c(=O)n3ccnc23)cc(OC)c1CN1CC(CN2CCC3(CC2)CN(c2ccc4c(c2)C(=O)N(C2CCC(=O)NC2=O)C4)C3)C1` (centres unmarked) [Compound D365] stands 10 to 100 nM; under `COc1cc(-c2cn(C)c(=O)c3cnccc23)cc(OC)c1CN1CCN(CC#Cc2ccc3c(c2)C(=O)N(C2CCC(=O)NC2=O)C3=O)CC1` (centres unmarked) [Compound D237], under 10 nM. Same read-out and setting: the same measure for `COc1cc(-c2cn(C)c(=O)c3cnccc23)cc(OC)c1CN(C)CCCn1cc(COC2CCN(c3ccc4c(c3)C(=O)N(C3CCC(=O)NC3=O)C4=O)CC2)nn1` (centres unmarked) [Compound D287]: under 10 nM.

Regarding `COc1cc(-c2cn(C)c(=O)c3cnccc23)cc(OC)c1CN1CC2(CCN(C(=O)CC#Cc3ccc4c(c3)C(=O)N(C3CCC(=O)NC3=O)C4=O)C2)C1` (centres unmarked) [Compound D311], the DC50 (Table 5B) is 10 to 100 nM. Still for that read-out and setting: the same measure for `COc1cc(-c2cn(C)c(=O)c3cnccc23)cc(OC)c1CN(C)C(=O)CCCCN1CCC2(CC1)CCN(c1ccc3c(c1)C(=O)N(C1CCC(=O)NC1=O)C3=O)C2` (centres unmarked) [Compound D202]: under 10 nM.

On to `COc1cc(-c2cn(C)c(=O)c3cnccc23)cc(OC)c1CN1CC(C(=O)N(C)Cc2cccc3c2C(=O)N(C2CCC(=O)NC2=O)C3=O)C1` (centres unmarked) [Compound D29, 1-(2,6-dimethoxy-4-(2-methyl-1-oxo-1,2-dihydro-2,7-naphthyridin-4-yl)benzyl)-N-((2-(2,6-dioxopiperidin-3-yl)-1,3-dioxoisoindolin-4-yl)methyl)-N-methylazetidine-3-carboxamide], for which the DC50 (Table 5A) was in the range of 10 to 100 nM. In the case of `COc1cc(-c2cc(C)c(=O)n(C)c2C)cc(OC)c1CN1CCC2(C1)CN(c1ccc3c(c1)C(=O)N(C1CCC(=O)NC1=O)C3)C2` (centres unmarked) [Compound D396], under “Table 5C”, the DC50 was under 10 nM. Consider `COc1cc(-c2cn(C)c(=O)c3cnccc23)cc(OC)c1CN(C)CCCCN1CCC2(CCN(c3ccc4c(c3)C(=O)N(C3CCC(=O)NC3=O)C4=O)C2)C1` (centres unmarked) [Compound D225], for which the DC50 (Table 5B) was under 10 nM. Regarding `COc1cc(-c2cn(C)c(=O)c3cnccc23)cc(OC)c1CN(C)CCCCN1CCCC2(CC(Oc3ccc4c(c3)C(=O)N([C@H]3CCC(=O)NC3=O)C4=O)C2)C1` (some centres unmarked) [Compound D246], for the setting “Table 5B”, the DC50 is under 10 nM.

Regarding `COc1cc(-c2cn(C)c(=O)c3cnccc23)cc(OC)c1CN1CC(CC(=O)N2CCC3(CC2)CN(c2ccc4c(c2)C(=O)N(C2CCC(=O)NC2=O)C4=O)C3)C1` (centres unmarked) [Compound D76], the DC50 (Table 5A) is under 10 nM.

Turning to `COc1cc(-c2cn(C)c(=O)c3cnccc23)cc(OC)c1CN1CCC(c2nc(COc3ccc4c(c3)C(=O)N(C3CCC(=O)NC3=O)C4=O)cs2)CC1` (centres unmarked) [Compound D321], the DC50 (Table 5B) is under 10 nM. Consider `COc1cc(-c2cn(C)c(=O)c3cnccc23)cc(OC)c1CN1CC2(CN(CC#Cc3ccc4c(c3)C(=O)N(C3CCC(=O)NC3=O)C4=O)C2)C1` (centres unmarked) [Compound D309], for which, under “Table 5B”, the DC50 is 10 to 100 nM.

On to `COc1cc(-c2cnc(=O)n(C)c2)cc(OC)c1CN1CCN(CCC2CCN(c3ccc4c(c3)C(=O)N(C3CCC(=O)NC3=O)C4=O)CC2)CC1` (centres unmarked) [Compound D342], for which the DC50 (Table 5B) was over 1000 nM. As for `COc1cc(-c2cn(C)c(=O)c3cnccc23)cc(OC)c1CN1CC[C@H]1C(=O)NCCCCCCCCNc1cccc2c1C(=O)N([C@@H]1CCC(=O)NC1=O)C2=O` (stereo in doubt) [Compound D18, (2S)-1-((2,6-dimethoxy-4-(2-methyl-1-oxo-2,7-naphthyridin-4-yl)phenyl)methy)-N-(8-((2-((R)-2,6-dioxopiperidin-3-yl)-1,3-dioxoisoindol-4-yl)amino)octyl) azetidine-2-carboxamide], for the setting “Table 5A”, the DC50 was under 10 nM. For the molecule `COc1cc(-c2cn(C)c(=O)c3cnccc23)cc(OC)c1CN1CC2(CCN(C(=O)C#Cc3ccc4c(c3)C(=O)N(C3CCC(=O)NC3=O)C4=O)C2)C1` (centres unmarked) [Compound D239], under “Table 5B”, the DC50 was under 10 nM. Turning to `[2H]C([2H])([2H])n1cc(-c2cc(OC)c(CN3[C@H](C)CN(c4ccc5c(c4)C(=O)N(C4CCC(=O)NC4=O)C5)C[C@H]3C)c(OC)c2)c2nn(C)cc2c1=O` (some centres unmarked) [Compound D424], the DC50 (Table 5C) is under 10 nM.

On to `COc1cc(-c2cn(C)c(=O)c3nn(C)cc23)cc(OC)c1CN1CCC2(CC1)CN(c1ccc3c(c1)C(=O)N(C1CCC(=O)NC1=O)C3)C2` (centres unmarked) [Compound D421], for which the DC50 (Table 5C) was under 10 nM. Consider `COc1cc(-c2cn(C)c(=O)c3cncn23)cc(OC)c1CN1CC(CN2CCC3(CC2)CN(c2ccc4c(c2)CN(C2CCC(=O)NC2=O)C4=O)C3)C1` (centres unmarked) [Compound D363], for which the DC50 (Table 5B) was under 10 nM. Consider `COc1cc(-c2cc(C)cc3ccccc23)cc(OC)c1CN1CCC(CN2CCC3(CC2)CC(Oc2ccc4c(c2)C(=O)N(C2CCC(=O)NC2=O)C4=O)C3)CC1` (centres unmarked) [DD11], for which, under “Table 5C”, the DC50 is over 1000 nM.
